Source: US20040171680A1, “Treating Syndrome X with substituted tetralins and indanes” (priority 2002, published 2004)

Key:
PPARγ = molecular target: T1, PPARγ (Homo sapiens, UniProt P37231); assay: aP2 Assay for PPAR gamma Agonists (bDNA aP2 mRNA in preadipocytes); assay type: cell-based; settings: values in square brackets
T1 construct: Following the challenge of the preadipocytes, cells may be lysed with lysis buffer; endogenous in cells; host or cells: preadipocytes
T1 sequence (P37231 1-505): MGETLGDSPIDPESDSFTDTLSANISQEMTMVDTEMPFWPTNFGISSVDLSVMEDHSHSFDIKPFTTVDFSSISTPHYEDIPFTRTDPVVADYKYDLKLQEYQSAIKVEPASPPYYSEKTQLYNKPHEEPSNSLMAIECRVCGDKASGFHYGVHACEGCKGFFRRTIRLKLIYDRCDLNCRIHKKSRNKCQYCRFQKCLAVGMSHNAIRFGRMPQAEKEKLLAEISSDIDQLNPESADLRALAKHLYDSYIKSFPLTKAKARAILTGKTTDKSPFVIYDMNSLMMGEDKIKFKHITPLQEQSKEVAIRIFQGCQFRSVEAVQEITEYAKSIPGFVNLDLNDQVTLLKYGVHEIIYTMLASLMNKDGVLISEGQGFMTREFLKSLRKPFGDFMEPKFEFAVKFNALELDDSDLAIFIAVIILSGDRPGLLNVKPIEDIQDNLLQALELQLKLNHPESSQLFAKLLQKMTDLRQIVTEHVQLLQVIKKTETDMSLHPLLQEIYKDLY

ob/ob mice = assay: 11 day oral dosing in female ob/ob mice; assay type: in vivo; settings: 1.0 mpk, once daily oral gavage for 11 days, % change compared to vehicle
Experimental: 11 Day Dosing of Example in Female, 7 week Old ob/ob Mice
(Female ob/ob mice (C57 BL/6J-Lep^ob, Jackson Labs, Bar Harbor, Me.), 7 weeks of age, were housed two per cage in solid-bottomed shoe box cages. Room temperature was maintained at 68-72° F. and humidity at 50-65%. Room lighting was on a 12-hour light/12-hour dark cycle. Mice were fed a certified NIH Rat and Mouse diet #5K50 (P M I Nutrition Int'l, St. Louis, Mo., via W. F. Fisher and Son, Inc., Bound Brook, N.J.). Food and water were supplied ad libitum.
The compound was prepared as suspensions in 0.5% hydroxypropylmethylcellulose (Dow Chemical, Midland, Mich.). The dosing volume was 10 mL/kg of body weight. Female ob/ob diabetic mice (8/group) were orally gavaged once daily for 11 days with either 0.5% methylcellulose in dH2O (vehicle) or PPAR agonist at 0.003, 0.01, 0.03, 0.1, 0.3, 1 mg/kg/day. Body weight was measured in the mornings on Day 1, prior to dosing, and on Day 12 before bleeding. 18 hours after the final dose for each group, the mice were anesthetized with CO2/O2 (70%:30%) and bled by retro-orbital sinus puncture into micro-tubes containing clog activator and then put in ice. […] Serum glucose and triglycerides were determined by using COBAS Mira Plus blood chemistry analyzer (Roche Diagnostics, N.J.). Serum insulin and free fatty acids were measured by using ALPCO insulin ELISA kit and Wako NEFA kit, respectively. […]

Structure (SMILES): CCN(C(=O)Nc1ccc(OC(F)(F)F)cc1)C1CCc2cc(SC(C)(C)C(=O)O)c(F)cc2C1 (centres unmarked) [Example 50, 2-{6-[1-Ethyl-3-(4-trifluoromethoxyphenyl)ureido]-3-fluoro-5,6,7,8-tetrahydronaphthalen-2-ylsulfanyl}-2-methylpropionic acid]
- EC50 (PPARγ): > 3 µM
- Δ Plasma TG (ob/ob mice): −86%
